Results as given in US10112941B2, “Tricyclic compounds as anticancer agents” (BRISTOL-MYERS SQUIBB COMPANY, priority 2013, dated 2018).

Target: BRD4 (Homo sapiens, UniProt O60885)
Test: Time Resolved Fluorescence Resonance Energy Transfer (TR-FRET) binding assay, BRD4
Conditions: FRET BRD4 IC50 (nM), one of the FRET assays described

**Q.** With `Cn1nnc(Br)c1-c1cnc2c3ccc(C(C)(C)O)cc3n([C@H](c3ccccc3)C3CCOCC3)c2c1` [Example 384, 2-[3-(4-Bromo-1-methyl-1H-1,2,3-triazol-5-yl)-5-[(S)-oxan-4-yl(phenyl)methyl]-5H-pyrido[3,2-b]indol-7-yl]propan-2-ol] as the compound, how does the IC50 read?
**A.** < 5 nM

Same assay, conditions: one of the FRET assays described; read-out: FRET BRD4 IC50

**Q.** For `[2H]C([2H])([2H])c1nnn(C)c1-c1cnc2c3c(OCC)cc(S(C)(=O)=O)cc3n(C(c3ccccc3)C3CCC(F)(F)CC3)c2c1` [Example 209, 5-{5-[(S)-(4,4-Difluorocyclohexyl)(phenyl)methyl]-9-ethoxy-7-methanesulfonyl-5H-pyrido[3,2-b]indol-3-yl}-4-(^2H3)methyl-1-methyl-1H-1,2,3-triazole], which IC50 is on record?
**A.** < 5 nM

**Q.** With `[2H]C([2H])([2H])c1nnn(C)c1-c1cnc2c3ccc(C(C)(C)O)c(F)c3n([C@H](c3ccc(F)cc3)C3CCOCC3)c2c1` [Example 271, 2-{6-Fluoro-5-[(S)-(4-fluorophenyl)(oxan-4-yl)methyl]-3-[4-(^2H3)methyl-1-methyl-1H-1,2,3-triazol-5-yl]-5H-pyrido[3,2-b]indol-7-yl}propan-2-ol] as the compound, how does the IC50 read?
**A.** < 5 nM

**Q.** `[2H]C([2H])([2H])c1nnn(C)c1-c1cnc2c3ccc(C(C)(O)C4CC4)c(F)c3n([C@H](c3ccccc3F)C3CCOCC3)c2c1` (single isomer, unassigned) [Example 438] was tested. Which IC50 did it give?
**A.** < 5 nM

**Q.** How did the IC50 turn out when `[2H]c1c(C([2H])(C2CCOCC2)n2c3cc(C(C)(C)O)ccc3c3ncc(-c4c(C)noc4C([2H])([2H])[2H])cc32)noc1C([2H])([2H])[2H]` (stereo not shown) [Example 327] was run?
**A.** < 5 nM

**Q.** How did the IC50 turn out when `[2H]C([2H])([2H])c1nnn(C)c1-c1cnc2c3ccc(C(C)(C)O)cc3n(C(c3ncccc3Cl)C3CCOCC3)c2c1` (single isomer, unassigned) [Example 322] was run?
**A.** < 5 nM

**Q.** `Cc1noc(C)c1-c1cnc2c3ccc(C(C)(C)O)cc3n([C@@H](CCC(F)(F)F)c3ccccn3)c2c1` [Example 23] was tested. Which IC50 did it give?
**A.** < 5 nM

**Q.** `Cc1nnn(C)c1-c1cnc2c3ccc(C(C)(C)O)cc3n(C(c3ccccc3Cl)C3CCOCC3)c2c1` (single isomer, unassigned) [Example 402] was tested. Which IC50 did it give?
**A.** < 5 nM

**Q.** With `Cc1nnn(C)c1-c1cnc2c3ccc(CS(C)(=O)=O)cc3n([C@@H](c3ncccc3Cl)C3CCOCC3)c2c1` [Example 340] as the compound, how does the IC50 read?
**A.** < 5 nM

**Q.** Which IC50 does the source give for `Cc1noc(C)c1-c1cnc2c3ccc(C(C)(C)O)cc3n([C@H](c3ccccc3)C3CCC3)c2c1` [Example 13] here?
**A.** < 5 nM

**Q.** For `Cc1noc(C)c1-c1cnc2c3ccc(C(C)(C)O)cc3n(C(c3cc(F)ccc3F)C3CCOCC3)c2c1` (single isomer, unassigned) [Example 139, 2-{5-[(2,5-Difluorophenyl)(oxan-4-yl)methyl]-3-(dimethyl-1,2-oxazol-4-yl)-5H-pyrido[3,2-b]indol-7-yl}propan-2-ol], which IC50 is on record?
**A.** < 5 nM

**Q.** With `Cc1nnn(C)c1-c1cnc2c3c(F)cc(C(C)(C)O)cc3n(C(c3cc(F)ccc3F)C3CCOCC3)c2c1` (single isomer, unassigned) [Example 107, 2-{5-[(2,5-Difluorophenyl)(oxan-4-yl)methyl]-3-(dimethyl-1H-1,2,3-triazol-5-yl)-9-fluoro-5H-pyrido[3,2-b]indol-7-yl}propan-2-ol] as the compound, how does the IC50 read?
**A.** < 5 nM

**Q.** Which IC50 does the source give for `Cc1nnn(C)c1-c1cnc2c3ccc(C(C)(C)O)cc3n([C@@H](c3ccccc3F)C3CCOCC3)c2c1` [Example 65] here?
**A.** < 5 nM

**Q.** Which IC50 does the source give for `[2H]C([2H])([2H])c1nnn(C)c1-c1cnc2c3ccc(C(C)(C)O)cc3n(C(c3ncccc3F)C3CCOCC3)c2c1` (single isomer, unassigned) [Example 316] here?
**A.** < 5 nM

**Q.** Which IC50 does the source give for `Cc1noc(C)c1-c1cnc2c3ccc(C(C)(C)O)cc3n(C(c3ccccc3)C3CCC(F)(F)CC3)c2c1` (single isomer, unassigned) [Example 28, 2-{5-[(4,4-Difluorocyclohexyl)(phenyl)methyl]-3-(dimethyl-1,2-oxazol-4-yl)-5H-pyrido[3,2-b]indol-7-yl}propan-2-ol] here?
**A.** < 5 nM

**Q.** How did the IC50 turn out when `[2H]C([2H])([2H])c1nnn(C)c1-c1cnc2c3c(OC)cc(C(C)(C)O)cc3n(C(c3cc(C)on3)C3CCOCC3)c2c1` (single isomer, unassigned) [Example 312] was run?
**A.** < 5 nM
